Experimental data reported in the NIST ThermoML archive (doi:10.1021/je900515a).

What was measured:
[1] = Liquid, Pycnometric method
[2] = molar heat capacity at constant pressure; settings: Liquid, Thermal relaxation method

C=C(F)C(F)(F)F [2,3,3,3-tetrafluoro-1-propene]
Settings	mass density, [1] [kg/m3]	molar heat capacity at constant pressure, [2] [J/K/mol]
310 K, 1000 kPa	1046.5	–
310 K, 2000 kPa	1056.3	165.36
310 K, 3000 kPa	1065.2	161.94
310 K, 4000 kPa	1072.8	152.82
310 K, 5000 kPa	1080.6	153.96
320 K, 2000 kPa	1013.8	173.34
320 K, 3000 kPa	1025.1	167.64
320 K, 4000 kPa	1035.3	160.8
320 K, 5000 kPa	1044.8	157.38
330 K, 2000 kPa	964.2	185.89
330 K, 3000 kPa	979.2	179.05
330 K, 4000 kPa	992.7	168.78
330 K, 5000 kPa	1004.6	163.08
340 K, 2000 kPa	903	205.27
340 K, 3000 kPa	926.7	187.03
340 K, 4000 kPa	945.3	177.9
340 K, 5000 kPa	961.3	169.92
350 K, 3000 kPa	861.8	217.82
350 K, 4000 kPa	891.3	196.15
350 K, 5000 kPa	913.1	182.47
360 K, 3000 kPa	751.9	297.65
360 K, 4000 kPa	818.5	222.38
360 K, 5000 kPa	853.9	197.29
